Assay results taken from the supplement of paper PMC10307832.

Legend:
Assay in all cases: relative viability (nuclei count vs DMSO), 5 days (fraction); higher = more cells survive
[1] = compound: CC1=CC(=CC=C1)NC2=NC(=CS2)C3=CC=NC=C3 + COc1cccc2cc(-c3nc([C@H]4CC[C@H](C(=O)O)CC4)n4ncnc(N)c34)[nH]c12 [OSI-027] (partner 0.5 µM)
Procedure, shortened: (§1)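 Each reported value is a median over duplicate plates. It expresses relative viability: treated-well nuclei count divided by vehicle-well nuclei count. Lung cancer cell lines in 1536-well plates were dosed by pin tool a day after seeding, alone with one drug or with a fixed anchor-drug dose plus five library-drug doses (not always all listed) in √10 steps, and nuclei were counted after 5 days.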

[2] = compound: CC1=CC(=CC=C1)NC2=NC(=CS2)C3=CC=NC=C3 + N=C(N)NC(=N)NCCc1ccccc1 [Phenformin] (partner 250 µM)
Procedure, shortened: as §1

[3] = compound: CC1=CC(=CC=C1)NC2=NC(=CS2)C3=CC=NC=C3 + O=C(c1cc(Cc2n[nH]c(=O)c3ccccc23)ccc1F)N1CCN(C(=O)C2CC2)CC1 [Olaparib] (partner 8 µM)
Procedure, shortened: as §1

Masitinib + Luminespib = compound: Cc1ccc(NC(=O)c2ccc(CN3CCN(C)CC3)cc2)cc1Nc1nc(-c2cccnc2)cs1 [Masitinib] + CCNC(=O)c1noc(-c2cc(C(C)C)c(O)cc2O)c1-c1ccc(CN2CCOCC2)cc1 [Luminespib] (partner 0.01 µM)
Procedure, shortened: as §1

UMC-11
relative viability ([1]; first compound 0.08 µM): 0.448 | relative viability ([1]; first compound 0.253 µM): 0.512 | relative viability ([1]; first compound 0.8 µM): 0.469 | relative viability ([1]; first compound 2.53 µM): 0.461 | relative viability ([1]; first compound 8 µM): 0.443 | relative viability ([2]; first compound 0.08 µM): 0.314 | relative viability ([2]; first compound 0.253 µM): 0.298 | relative viability ([2]; first compound 0.8 µM): 0.32 | relative viability ([2]; first compound 2.53 µM): 0.307 | relative viability ([2]; first compound 8 µM): 0.349 | relative viability ([3]; first compound 0.08 µM): 0.339 | relative viability ([3]; first compound 0.253 µM): 0.386 | relative viability ([3]; first compound 0.8 µM): 0.381 | relative viability ([3]; first compound 2.53 µM): 0.806 | relative viability ([3]; first compound 8 µM): 0.402 | relative viability (Masitinib + Luminespib; first compound 0.03162 µM): 1.08 | relative viability (Masitinib + Luminespib; first compound 0.1 µM): 1.13 | relative viability (Masitinib + Luminespib; first compound 0.3162 µM): 1.17 | relative viability (Masitinib + Luminespib; first compound 1 µM): 1.12
